# System: human PBMCs
# Test: Human PBMC cytokine response assay (IFN-γ and IFN-α in cell-free medium by ELISA), with or without cPLGA;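 for IFN-α (pg/ml) mean: 20 µg/mL compound for 24 hours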;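 for IFN-γ (pg/ml) mean: 20 µg/mL compound for 24 hours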
# Type: cell-based
# Conditions: for immunomodulatory activity (IFN-γ / IFN-α secretion), in words: used alone (no cPLGA)
# [1] = mean of donors 28057-28060, Table 16
# [2] = Table 25, mean of donors 28250-28253
# [3] = donor 28066, 20 ug/ml, 24 h, + PLGA = premixed with 100 μg/ml cPLGA
# [4] = donor 28067, 20 ug/ml, 24 h, + PLGA = premixed with 100 μg/ml cPLGA
# [5] = donor 28068, 20 ug/ml, 24 h, + PLGA = premixed with 100 μg/ml cPLGA
# [6] = mean of Donors 3-4, 20 μg/ml, 24 h
# [7] = mean of donors 28065-28068, 20 ug/ml, 24 h, + PLGA = premixed with 100 μg/ml cPLGA
# [8] = mean of donors 28218-28221, 20 μg/ml, 24 h
substance,measurement,setting,value
5′-TCGTCG-3′-(HME)15-5′-T-3′ [Compound C-14],IFN-α,"donor 28057, Table 16",0 pg/mL
same,IFN-γ,"donor 28057, Table 16",3 pg/mL
same,IFN-α,"donor 28058, Table 16",0 pg/mL
same,IFN-γ,"donor 28058, Table 16",1 pg/mL
same,IFN-α,"donor 28059, Table 16",0 pg/mL
same,IFN-γ,"donor 28059, Table 16",1 pg/mL
same,IFN-α,"donor 28060, Table 16",0 pg/mL
same,IFN-γ,"donor 28060, Table 16",3 pg/mL
same,"activity when formulated with cPLGA, in words",,all had significant activity when formulated on cPLGA
same,IFN-α (pg/ml) mean,[1],0 pg/mL
same,IFN-γ (pg/ml) mean,[1],2 pg/mL
same,"immunomodulatory activity (IFN-γ / IFN-α secretion), in words",,None of the CICs was active when used alone
5′-TCGTCG-3′-(C3)15-5′-T-3′ [Compound C-13],IFN-α,"donor 28057, Table 16",31 pg/mL
same,IFN-γ,"donor 28057, Table 16",2 pg/mL
same,IFN-α,"donor 28058, Table 16",0 pg/mL
same,IFN-γ,"donor 28058, Table 16",3 pg/mL
same,IFN-α,"donor 28059, Table 16",249 pg/mL
same,IFN-γ,"donor 28059, Table 16",12 pg/mL
same,IFN-α,"donor 28060, Table 16",0 pg/mL
same,IFN-γ,"donor 28060, Table 16",5 pg/mL
same,"activity when formulated with cPLGA, in words",,all had significant activity when formulated on cPLGA
same,IFN-α (pg/ml) mean,[1],70 pg/mL
same,IFN-γ (pg/ml) mean,[1],6 pg/mL
same,"immunomodulatory activity (IFN-γ / IFN-α secretion), in words",,None of the CICs was active when used alone
"5′-ACGTTCG-3′ [Compound P-3, reference compound]",IFN-α (pg/ml) Donor 3,"Donor 3, 20 μg/ml, 24 h",0 pg/mL
same,IFN-γ (pg/ml) Donor 3,"Donor 3, 20 μg/ml, 24 h",1 pg/mL
same,IFN-α (pg/ml) Donor 4,"Donor 4, 20 μg/ml, 24 h",32 pg/mL
same,IFN-γ (pg/ml) Donor 4,"Donor 4, 20 μg/ml, 24 h",3 pg/mL
same,IFN-a,"Table 25, donor 28250",16 pg/mL
same,IFN-g,"Table 25, donor 28250, polynucleotides/spacers at amounts equivalent to the CIC, spacers alone 9 uM",32 pg/mL
same,IFN-a,"Table 25, donor 28251",29 pg/mL
same,IFN-g,"Table 25, donor 28251",21 pg/mL
same,IFN-a,"Table 25, donor 28252",38 pg/mL
same,IFN-g,"Table 25, donor 28252",72 pg/mL
same,IFN-a,"Table 25, donor 28253",31 pg/mL
same,IFN-g,"Table 25, donor 28253",1 pg/mL
same,IFN-a mean,[2],29 pg/mL
same,IFN-g mean,[2],31 pg/mL
same,IFN-γ (pg/ml) 28065,"donor 28065 (high background), 20 ug/ml, 24 h, + PLGA = premixed with 100 μg/ml cPLGA, 1000 = outside assay limits",94 pg/mL
same,IFN-α (pg/ml) 28065,"donor 28065, 20 ug/ml, 24 h, + PLGA = premixed with 100 μg/ml cPLGA",0 pg/mL
same,IFN-α (pg/ml) 28066,[3],0 pg/mL
same,IFN-γ (pg/ml) 28066,[3],27 pg/mL
same,IFN-α (pg/ml) 28067,[4],5 pg/mL
same,IFN-γ (pg/ml) 28067,[4],1 pg/mL
same,IFN-α (pg/ml) 28068,[5],0 pg/mL
same,IFN-γ (pg/ml) 28068,[5],0 pg/mL
same,IFN-α (pg/ml) mean,[6],16 pg/mL
same,IFN-γ (pg/ml) mean,[6],2 pg/mL
same,IFN-α (pg/ml) mean,[7],1 pg/mL
same,IFN-γ (pg/ml) mean,[7],31 pg/mL
same,"immunomodulatory activity (IFN-γ / IFN-α secretion), in words",,did not have immunomodulatory activity
"5′-GsGsGsGs-3′-C3-5′-ATCGAT-3′-C3-5′-TGATGCATCA-3′-C3-5′-ATCGAT-3′-C3-5′-GsGsGsGsGsG-3′ (s = phosphorothioate linkages, otherwise linkages are phosphodiester) (TGATGCATCA is SEQ ID NO: 105) (listed as DNA, chemistry not fully specified) [Compound C-87]",IFN-a (pg/ml) 28218,"donor 28218, 20 μg/ml, 24 h",3075 pg/mL
same,IFN-g (pg/ml) 28218,"donor 28218, 20 μg/ml, 24 h",83 pg/mL
same,IFN-a (pg/ml) 28219,"donor 28219, 20 μg/ml, 24 h",32 pg/mL
same,IFN-g (pg/ml) 28219,"donor 28219, 20 μg/ml, 24 h",24 pg/mL
same,IFN-a (pg/ml) 28220,"donor 28220, 20 μg/ml, 24 h",4269 pg/mL
same,IFN-g (pg/ml) 28220,"donor 28220, 20 μg/ml, 24 h",38 pg/mL
same,IFN-a (pg/ml) 28221,"donor 28221, 20 μg/ml, 24 h",265 pg/mL
same,IFN-g (pg/ml) 28221,"donor 28221, 20 μg/ml, 24 h",977 pg/mL
same,IFN-a (pg/ml) mean,[8],1910 pg/mL
same,IFN-g (pg/ml) mean,[8],281 pg/mL
same,"IFN-α induction, in words",used alone,remarkable induction of IFN-α

# Source: US9028845B2, “Chimeric immunomodulatory compounds and methods of using the same-IV” (Dynavax Technologies Corporation, priority 2001, dated 2015)
